14 compounds from patent US10906876B2, “Tetrahydroisoquinolines as selective NADPH oxidase 2 inhibitors” (University of Pittsburgh—Of the Commonwealth System of …, priority 2013, dated 2021) can be followed below.

“And” between values parts separate entries of the source, which are not always exact repeats. Identical values can stand only once.

One assay deals with T1, Nox5 (Homo sapiens, UniProt Q96PH1).
T1 construct: expressed in transfected cells; host or cells: HEK-Nox5 cells (gift of D. Fulton)
T1 sequence (Q96PH1 19-737 isoform Q96PH1-3 limits assumed): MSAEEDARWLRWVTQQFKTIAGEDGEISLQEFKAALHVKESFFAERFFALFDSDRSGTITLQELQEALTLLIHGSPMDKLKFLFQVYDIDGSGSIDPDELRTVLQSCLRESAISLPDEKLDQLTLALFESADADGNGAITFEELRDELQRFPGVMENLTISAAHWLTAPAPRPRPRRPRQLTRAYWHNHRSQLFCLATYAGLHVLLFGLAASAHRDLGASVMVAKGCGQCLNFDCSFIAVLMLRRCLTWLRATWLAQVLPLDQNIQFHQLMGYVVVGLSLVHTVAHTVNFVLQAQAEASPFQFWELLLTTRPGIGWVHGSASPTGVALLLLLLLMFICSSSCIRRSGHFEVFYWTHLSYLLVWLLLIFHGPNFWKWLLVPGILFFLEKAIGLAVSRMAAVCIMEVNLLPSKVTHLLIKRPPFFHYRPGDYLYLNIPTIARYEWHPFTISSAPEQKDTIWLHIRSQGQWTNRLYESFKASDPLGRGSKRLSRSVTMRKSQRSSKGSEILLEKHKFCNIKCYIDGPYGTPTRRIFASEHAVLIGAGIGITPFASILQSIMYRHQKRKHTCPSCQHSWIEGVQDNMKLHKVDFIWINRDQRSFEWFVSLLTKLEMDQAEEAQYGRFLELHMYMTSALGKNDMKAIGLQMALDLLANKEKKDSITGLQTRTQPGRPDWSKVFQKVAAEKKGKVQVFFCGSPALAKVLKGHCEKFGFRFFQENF
The assay is described as follows: Nox5 activity in HEK-Nox5 cells, L-012 assay. The assay is classed as cell-based. Particulars: for IC50: HEK-Nox5 cells stimulated with 1 μM PMA and 0.5 ionomycin, L-012, read-out: IC50 of ROS generation, Nox5 (L-012 assay); for Nox5 inhibitory activity: Table 2. The text has this: (§1) All cell culture reagents were obtained from Invitrogen, unless indicated. COS-22 (COS-7 cells stably expressing human p22^phox) and COS-Nox2 (a.k.a. COS-phox) cells (COS-7 cells stably expressing human p22^phox, Nox2, p47^phox and p67^phox) were kindly provided by Dr. Mary C. Dinauer (Indiana University, School of Medicine) (Price et al., Blood, 2002, 99:2653-2661). COS-22 cells were maintained in Dulbecco's Modified Eagle Medium (DMEM) with 4.5 g/L glucose, L-glutamine and sodium pyruvate containing 10% heat-inactivated fetal bovine serum (FBS), 100 units/ml penicillin and 100 μg/ml streptomycin (complete media) supplemented with 1.8 mg/ml G418 (Calbiochem/EMB Bioscience, Gibbstown, N.J.). COS-Nox2 cells were maintained in complete media supplemented with 1.8 mg/mL G418, 1 μg/mL puromycin (Sigma, St Louis, Mo.) and 0.2 mg/mL hygromycin B (Invitrogen, Carlsbad, Calif.). HEK-Nox5 cells were kindly provided by Dr. David Fulton (Georgia Health Sciences University) and maintained in complete media.
COS-Nox2, COS-Nox1/NOXO1/NOXA1, HEK-Nox5 and COS-22 cells were re-plated in OPTIMEM into 384-well white micro-plates (Greiner-Bio One GmbH, Germany) at a density of 2.5×10^3 cells/well for COS-Nox2 and 5×10^4 cells/well for all others. The cells were incubated at 37° C. in PBS containing 400 μm L-012 for 10 min. […] Since Nox1 was constitutively active, Nox1-derived O2^•− was assessed by comparison to non-transfected cells (Cos22). Luminescence was quantified over time using a Biotek Synergy 4 Hybrid Multi-Mode Microplate Reader. The specificity of L-012 for O2^•− was confirmed by the addition of SOD (150 U/mL).
(§2) All data are expressed as means±SEM. IC50 values were determined using the GraphPad Prism software (GraphPad Software, San Diego, Calif.) for non-linear regression three-parameters, with constrain values of 100 and 0 for top and bottom, respectively, and assumes a Hill slope of 1.

Another assay deals with T2, Nox2 (Homo sapiens, UniProt P04839).
T2 construct: expressed in transfected cells
T2 sequence (P04839 2-570 limits assumed): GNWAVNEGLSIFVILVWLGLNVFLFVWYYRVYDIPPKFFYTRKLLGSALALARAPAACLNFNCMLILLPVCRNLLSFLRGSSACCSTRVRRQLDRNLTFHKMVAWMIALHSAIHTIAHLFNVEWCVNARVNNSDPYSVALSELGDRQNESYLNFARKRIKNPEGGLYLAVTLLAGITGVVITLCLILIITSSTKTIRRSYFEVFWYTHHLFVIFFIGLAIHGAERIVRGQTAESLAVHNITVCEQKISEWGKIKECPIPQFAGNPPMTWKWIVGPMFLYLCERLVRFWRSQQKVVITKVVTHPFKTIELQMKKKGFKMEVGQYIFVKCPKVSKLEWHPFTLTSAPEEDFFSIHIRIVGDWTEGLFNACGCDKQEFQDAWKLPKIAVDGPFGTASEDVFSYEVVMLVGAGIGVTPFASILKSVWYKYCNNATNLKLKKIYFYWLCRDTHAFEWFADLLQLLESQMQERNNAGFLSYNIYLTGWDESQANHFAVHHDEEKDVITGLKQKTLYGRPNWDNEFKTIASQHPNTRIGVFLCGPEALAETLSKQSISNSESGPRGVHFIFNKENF
The assay is described as follows: ROS (superoxide) generation in whole COS-Nox2 cells, L-012 chemiluminescence. Conditions: for IC50: whole COS-Nox2 cells stimulated with 5 μM PMA. It counts as cell-based.
Text: as §1
COS-Nox2, COS-Nox1/NOXO1/NOXA1, HEK-Nox5 and COS-22 cells were re-plated in OPTIMEM into 384-well white micro-plates (Greiner-Bio One GmbH, Germany) at a density of 2.5×10^3 cells/well for COS-Nox2 and 5×10^4 cells/well for all others. The cells were incubated at 37° C. in PBS containing […] L-012 for 10 min. Reaction was initiated by addition of 5 μM PMA in the case of Nox2 or 1 μM PMA/0.1 μM Ionomycin in the case of Nox5. Since Nox1 was constitutively active, Nox1-derived O2^•− was assessed by comparison to non-transfected cells (Cos22). Luminescence was quantified over time using a Biotek Synergy 4 Hybrid Multi-Mode Microplate Reader. The specificity of L-012 for O2^•− was confirmed by the addition of SOD (150 U/mL).
as §2
Heterologous Nox1, 2, 4, and 5 cell systems were used as a testing paradigm to identify a probe molecule that inhibits Nox2 selectively over Nox1, 4, and 5. An acceptable probe would also show a lack of activity against XO, which also produces ROS. The latter screen would serve two purposes: (1) to eliminate drugs that inhibit an oxidase of distinct composition; and (2) to preclude agents that directly scavenge ROS. A cell-based primary assay using stable Nox2-transfected COS cells (Price et al., Blood 2002, 99:2653-2661) with L-012 chemiluminescence (Daiber et al., Free Radic. Biol. Med. 2004, 36:101-111) was used as a detection system for O2^•−-generation.

As to `C=C(C)CC1NC2CC(C)(C)C1c1c(Br)cccc12` (racemic) [Compound 7, (±)-(1S,4R,9S)-5-Bromo-3,3-dimethyl-9-(2-methylallyl)-1,2,3,4-tetrahydro-1,4-(epimino-methano)-naphthalene], at Nox5, the IC50 was determined as 20 ± 3.1 µM and the “Nox5 inhibitory activity” value is given as “active”. Further, at Nox2 (screened at 100, 50, 25, and 12.5 μM, COS-Nox2 cells), the “Activity in primary library screen” value is given as “hit”. Moreover, the IC50 on Nox2 was 45 µM and 46 µM.
As to `C=C(C)CC1NC2CC(C)(C)C1c1ccccc12` (racemic) [Compound 8, (±)-(1S,4R,9S)-3,3-Dimethyl-9-(2-methylallyl)-1,2,3,4-tetrahydro-1,4-(epiminomethano)-naphthalene], at Nox5, the IC50 was > 100 µM and the “Nox5 inhibitory activity” value is “inactive”. Moreover, at Nox2, the IC50 is > 100 µM.
`C=C(C)CC1C2c3ccccc3C(CC2(C)C)N1Cc1cccc(F)c1` (racemic) [Compound 11a, (±)-(1S,4R,9S)-10-(3-Fluorobenzyl)-3,3-dimethyl-9-(2-methylallyl)-1,2,3,4-tetrahydro-1,4-(epiminomethano)naphthalene]: on Nox5, the IC50 amounted to 50 ± 9 µM and the “Nox5 inhibitory activity” value is on record as “inhibited”. In addition, the IC50 on Nox2 worked out at 68 ± 33 µM.
For the compound `C=C(C)CC1C2c3c(Br)cccc3C(CC2(C)C)N1Cc1ccnc2ccccc12` (racemic) [Compound 11b, (±)-(1S,4R,9S)-5-Bromo-3,3-dimethyl-9-(2-methylallyl)-10-(quinolin-4-ylmethyl)-1,2,3,4-tetra-hydro-1,4-(epiminomethano)naphthalene], the IC50 on Nox5 and at Nox2 was > 100 µM throughout.
On to `C=C(C)CC1C2c3c(Br)cccc3C(CC2(C)C)N1Cc1c[nH]c2ccccc12` (racemic) [Compound 11c, (±)-(1S,4R,9S)-10-((1H-Indol-3-yl)methyl)-5-bromo-3,3-dimethyl-9-(2-methylallyl)-1,2,3,4-tetrahydro-1,4-(epiminomethano)naphthalene], for which the IC50 on Nox5 and at Nox2 was > 100 µM in each case.
`C=C(C)CC1C2c3c(Br)cccc3C(CC2(C)C)N1Cc1ccc2c(c1)OCO2` (racemic) [Compound 11d, (±)-(1S,4R,9S)-10-(Benzo[d][1,3]dioxol-5-ylmethyl)-5-bromo-3,3-dimethyl-9-(2-methylallyl)-1,2,3,4-tetrahydro-1,4-(epiminomethano)naphthalene]: the results for the IC50 at Nox5 and at Nox2 were > 100 µM and 88 ± 22 µM, respectively.
For `C=C(C)CC1C2c3c(Br)cccc3C(CC2(C)C)N1Cc1cc(C)on1` (racemic) [Compound 11e, (±)-3-(1S,4R,9S)-5-Bromo-3,3-dimethyl-9-(2-methylallyl)-1,2,3,4-tetrahydro-1,4-(epimino-methano) naphthalen-10-yl)methyl)-5-methylisoxazole], at Nox5, the IC50 was 31 ± 11 µM and the “Nox5 inhibitory activity” value is listed as “inhibited”. Also, on Nox2, the IC50 worked out at 48 ± 23 µM.
The like results for `C=C(C)CC1C2c3c(Br)cccc3C(CC2(C)C)N1Cc1cccc(F)c1` (racemic) [Compound 11f, (±)-(1S,4R,9S)-5-Bromo-10-(3-fluorobenzyl)-3,3-dimethyl-9-(2-methylallyl)-1,2,3,4-tetrahydro-1,4-(epiminomethano)naphthalene] were, in that order, 79 ± 30 µM, “inhibited” and 68 ± 22 µM.
The like results for `C=C(C)CC1C2c3c(Br)cccc3C(CC2(C)C)N1CCCCC` (racemic) [Compound 11g, (±)-(1S,4R,9S)-5-Bromo-3,3-dimethyl-9-(2-methylallyl-10-pentyl-1,2,3,4-tetrahydro-1,4-(epiminomethano)naphthalene] were, in that order, > 100 µM, “virtually no effect” and 20 ± 4.9 µM.
On to `C=C(C)CC1C2c3c(Br)cccc3C(CC2(C)C)N1Cc1cccs1` (racemic) [Compound 11h, (±)-(1S,4R,9S)-5-Bromo-3,3-dimethyl-9-(2-methylallyl)-10-(thiophen-2-ylmethyl)-1,2,3,4-tetrahydro-1,4-(epiminomethano)naphthalene], for which, at Nox5, the IC50 was > 100 µM and the “Nox5 inhibitory activity” value is listed as “virtually no effect”. Besides, the IC50 at Nox2 is 38 ± 11 µM.
For `C=C(C)CC1NC2CC(C)(C)C1c1c(-c3ccc(Cl)c(Cl)c3)cccc12` (racemic) [Compound 12a, (±)-(1S,4R,9S)-5-(3,4-Dichlorophenyl)-3,3-dimethyl-9-(2-methylallyl)-1,2,3,4-tetrahydro-1,4-(epiminomethano)naphthalene], at Nox5, the IC50 turned out to be 14 ± 0.6 µM and the “Nox5 inhibitory activity” value was “comparable”. Further, the IC50 on Nox2 stood at 9 ± 0.9 µM.
Consider `C=C(C)CC1C2c3c(-c4ccc(Cl)c(Cl)c4)cccc3C(CC2(C)C)N1Cc1ccc2c(c1)OCO2` (racemic) [Compound 12b, (±)-(1S,4R,9S)-10-(Benzo[d][1,3]dioxol-5-ylmethyl)-5-(3,4-dichlorophenyl)-3,3-dimethyl-9-(2-methylallyl)-1,2,3,4-tetrahydro-1,4-(epiminomethano)-naphthalene], for which the IC50 at Nox5 and at Nox2 was > 100 µM each time.
For the compound `C=C(C)CC1C2c3c(-c4ccc(Cl)c(Cl)c4)cccc3C(CC2(C)C)N1CCCCC` (racemic) [Compound 12c], the IC50 at Nox5 and at Nox2 was > 100 µM throughout.
As for `CC(C)CC1NC2CC(C)(C)C1c1c(Br)cccc12` (racemic) [Compound 13], on Nox5, the IC50 is 18 ± 1 µM and the “Nox5 inhibitory activity” value is reported as “retained inhibitory activity”. In addition, the IC50 on Nox2 came to 31 ± 3.8 µM.
